# According to US9833497B2, “Human originated EGF domain proteins and use of the same” (CHENGDU SOURCEBIO LIMITED-LIABILITY COMPANY, priority 2013, dated 2017):
# What was measured:
# Assay type in all cases: cell-based
# E. coli DH5α = assay: Antibacterial activity: MIC and growth curve against E. coli DH5α in 96-well plate; conditions: minimal inhibitory concentration against E. coli DH5α; 96-well plate, 5×10^5 CFU/mL, 37° C., judged after 8 h
# Method in brief: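 Log-phase bacteria (OD600 ~0.5) resuspended in LB at 5×10^5 CFU/mL, exposed to recombinant protein at 50, 25, 12.5 μg/mL final in triplicate, 37 °C shaking at 175 rpm. OD600 read every 30 min; MIC is lowest concentration showing no growth.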
# E. coli BL21 = assay: MIC against Gram-negative bacteria: E. coli BL21; conditions: 5×10^5 CFU/mL
# Method in brief: (§1)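 The recombinant human-originated EGF domain proteins were serially diluted two-fold against bacteria at 5×10^5 CFU/mL in LB medium. After shaken incubation at 37° C, the lowest concentration with no bacterial growth was recorded as the MIC.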
# Pseudomonas aeruginosa = assay: MIC against Gram-negative bacteria: Pseudomonas aeruginosa; conditions: 5×10^5 CFU/mL
# Method in brief: as §1
# Klebsiella pneumonia = assay: MIC against Gram-negative bacteria: Klebsiella pneumonia; conditions: 5×10^5 CFU/mL
# Method in brief: as §1
# Enterobacter cloacae = assay: MIC against Gram-negative bacteria: Enterobacter cloacae; conditions: 5×10^5 CFU/mL
# Method in brief: as §1
# Aeromonas hydrophila = assay: MIC against Gram-negative bacteria: Aeromonas hydrophila; conditions: 5×10^5 CFU/mL
# Method in brief: as §1
# Citrobacter diversus = assay: MIC against Gram-negative bacteria: Citrobacter diversus; conditions: 5×10^5 CFU/mL
# Method in brief: as §1
# Moraxella catarrhalis = assay: MIC against Gram-negative bacteria: Moraxella catarrhalis; conditions: 5×10^5 CFU/mL
# Method in brief: as §1
# Proteus mirabilis = assay: MIC against Gram-negative bacteria: Proteus mirabilis; conditions: 5×10^5 CFU/mL
# Method in brief: as §1
# Proteus vulgaris = assay: MIC against Gram-negative bacteria: Proteus vulgaris; conditions: 5×10^5 CFU/mL
# Method in brief: as §1
# Serratia marcescens = assay: MIC against Gram-negative bacteria: Serratia marcescens; conditions: 5×10^5 CFU/mL
# Method in brief: as §1
# [1] = 10 h cultivation at 37° C., two-fold serial dilution
# [2] = E. coli BL21, 96-well plate, 37° C., 10 h
# [3] = Pseudomonas aeruginosa, 96-well plate, 37° C., 10 h
# [4] = Klebsiella pneumonia, 96-well plate, 37° C., 10 h
# [5] = Enterobacter cloacae, 96-well plate, 37° C., 10 h
# [6] = Aeromonas hydrophila, 96-well plate, 37° C., 10 h
# [7] = Citrobacter diversus, 96-well plate, 37° C., 10 h
# [8] = Moraxella catarrhalis, 96-well plate, 37° C., 10 h
# [9] = Proteus mirabilis, 96-well plate, 37° C., 10 h
# [10] = Proteus vulgaris, 96-well plate, 37° C., 10 h
# [11] = Serratia marcescens, 96-well plate, 37° C., 10 h
substance,measurement,setting,value
PRT831 (DGRHCVRRSPCANRNGSCMHRCQVVRGLARCECHVGYQLAADGKACE; listed as Homo sapiens),MIC,E. coli DH5α,25 µg/mL
same,MIC (μg/mL) E. coli BL21,"E. coli BL21; E. coli BL21, 10 h cultivation at 37° C.",25 µg/mL
same,MIC (μg/mL) P. aeruginosa,"Pseudomonas aeruginosa; P. aeruginosa, 10 h cultivation at 37° C.",12.5 µg/mL
same,MIC (μg/mL) K. pneumonia,"Klebsiella pneumonia; K. pneumonia, 10 h cultivation at 37° C.",25 µg/mL
same,MIC (μg/mL) E. cloacae,"Enterobacter cloacae; E. cloacae, 10 h cultivation at 37° C.",12.5 µg/mL
same,MIC (μg/mL) A. hydrophila,"Aeromonas hydrophila; A. hydrophila, 10 h cultivation at 37° C.",25 µg/mL
same,MIC (μg/mL) C. diversus,"Citrobacter diversus; C. diversus, 10 h cultivation at 37° C.",50 µg/mL
same,MIC (μg/mL) M. catarrhalis,"Moraxella catarrhalis; M. catarrhalis, 10 h cultivation at 37° C.",12.5 µg/mL
same,MIC (μg/mL) P. mirabilis,"Proteus mirabilis; P. mirabilis, 10 h cultivation at 37° C.",50 µg/mL
same,MIC (μg/mL) P. vulgaris,"Proteus vulgaris; P. vulgaris, 10 h cultivation at 37° C.",25 µg/mL
same,MIC (μg/mL) S. marcescens,"Serratia marcescens; S. marcescens, 10 h cultivation at 37° C.",12.5 µg/mL
PRT1087 (HEEPCGPSHKSFCLNGGLCYVIPTIPSPFCRCVENYTGARCE; listed as Homo sapiens),MIC,E. coli DH5α,50 µg/mL
same,MIC E. coli BL21,E. coli BL21; [1],12.5 µg/mL
same,MIC P. aeruginosa,Pseudomonas aeruginosa; [1],50 µg/mL
same,MIC K. pneumonia,Klebsiella pneumonia; [1],50 µg/mL
same,MIC E. cloacae,Enterobacter cloacae; [1],50 µg/mL
same,MIC A. hydrophila,Aeromonas hydrophila; [1],12.5 µg/mL
same,MIC C. diversus,Citrobacter diversus; [1],25 µg/mL
same,MIC M. catarrhalis,Moraxella catarrhalis; [1],50 µg/mL
same,MIC P. mirabilis,Proteus mirabilis; [1],25 µg/mL
same,MIC P. vulgaris,Proteus vulgaris; [1],25 µg/mL
same,MIC S. marcescens,Serratia marcescens; [1],25 µg/mL
PRT674 (DVDECQDPAACRPGRCVNLPGSYRCECRPPWVPGPSGRDCQ; listed as Homo sapiens),MIC,E. coli DH5α,12.5 µg/mL
same,MIC E. coli BL21,"E. coli BL21; 96-well plate, 37° C., 10 h",25 µg/mL
same,MIC P. aeruginosa,"Pseudomonas aeruginosa; 96-well plate, 37° C., 10 h",50 µg/mL
same,MIC K. pneumonia,"Klebsiella pneumonia; 96-well plate, 37° C., 10 h",25 µg/mL
same,MIC E. cloacae,"Enterobacter cloacae; 96-well plate, 37° C., 10 h",12.5 µg/mL
same,MIC A. hydrophila,"Aeromonas hydrophila; 96-well plate, 37° C., 10 h",50 µg/mL
same,MIC C. diversus,"Citrobacter diversus; 96-well plate, 37° C., 10 h",25 µg/mL
same,MIC M. catarrhalis,"Moraxella catarrhalis; 96-well plate, 37° C., 10 h",25 µg/mL
same,MIC P. mirabilis,"Proteus mirabilis; 96-well plate, 37° C., 10 h",12.5 µg/mL
same,MIC P. vulgaris,"Proteus vulgaris; 96-well plate, 37° C., 10 h",50 µg/mL
same,MIC S. marcescens,"Serratia marcescens; 96-well plate, 37° C., 10 h",25 µg/mL
PRT34 (ACHPGFYGPDCKLRCSCNNGEMCDRFQGCLCSPGWQGLQCE; listed as Homo sapiens),MIC,E. coli DH5α,100 µg/mL
same,MIC (μg/mL) E. coli BL21,E. coli BL21; [2],25 µg/mL
same,MIC (μg/mL) P. aeruginosa,Pseudomonas aeruginosa; [3],25 µg/mL
same,MIC (μg/mL) K. pneumonia,Klebsiella pneumonia; [4],12.5 µg/mL
same,MIC (μg/mL) E. cloacae,Enterobacter cloacae; [5],12.5 µg/mL
same,MIC (μg/mL) A. hydrophila,Aeromonas hydrophila; [6],25 µg/mL
same,MIC (μg/mL) C. diversus,Citrobacter diversus; [7],25 µg/mL
same,MIC (μg/mL) M. catarrhalis,Moraxella catarrhalis; [8],12.5 µg/mL
same,MIC (μg/mL) P. mirabilis,Proteus mirabilis; [9],12.5 µg/mL
same,MIC (μg/mL) P. vulgaris,Proteus vulgaris; [10],25 µg/mL
same,MIC (μg/mL) S. marcescens,Serratia marcescens; [11],12.5 µg/mL
PRT1207 (DIDECSDGFVQCDSRANCINLPGWYHCECRDGYHDNGMFSPSGESCE; listed as Homo sapiens),MIC,E. coli DH5α,12.5 µg/mL
same,MIC against E. coli BL21,E. coli BL21; [2],25 µg/mL
same,MIC against P. aeruginosa,Pseudomonas aeruginosa; [3],12.5 µg/mL
same,MIC against K. pneumonia,Klebsiella pneumonia; [4],12.5 µg/mL
same,MIC against E. cloacae,Enterobacter cloacae; [5],25 µg/mL
same,MIC against A. hydrophila,Aeromonas hydrophila; [6],25 µg/mL
same,MIC against C. diversus,Citrobacter diversus; [7],12.5 µg/mL
same,MIC against M. catarrhalis,Moraxella catarrhalis; [8],25 µg/mL
same,MIC against P. mirabilis,Proteus mirabilis; [9],25 µg/mL
same,MIC against P. vulgaris,Proteus vulgaris; [10],12.5 µg/mL
same,MIC against S. marcescens,Serratia marcescens; [11],12.5 µg/mL
PRT612 (CPCPGGSSCAVVPKTKEVVCTNCPTGTTGKRCELCDDGYFGDPLGRNGPVRLCRL; listed as Homo sapiens),MIC,E. coli DH5α,25 µg/mL
same,MIC E. coli BL21,"E. coli BL21; 96-well plate, 37° C., 10 h",12.5 µg/mL
same,MIC P. aeruginosa,"Pseudomonas aeruginosa; 96-well plate, 37° C., 10 h",25 µg/mL
same,MIC K. pneumonia,"Klebsiella pneumonia; 96-well plate, 37° C., 10 h",50 µg/mL
same,MIC E. cloacae,"Enterobacter cloacae; 96-well plate, 37° C., 10 h",25 µg/mL
same,MIC A. hydrophila,"Aeromonas hydrophila; 96-well plate, 37° C., 10 h",12.5 µg/mL
same,MIC C. diversus,"Citrobacter diversus; 96-well plate, 37° C., 10 h",25 µg/mL
same,MIC M. catarrhalis,"Moraxella catarrhalis; 96-well plate, 37° C., 10 h",50 µg/mL
same,MIC P. mirabilis,"Proteus mirabilis; 96-well plate, 37° C., 10 h",25 µg/mL
same,MIC P. vulgaris,"Proteus vulgaris; 96-well plate, 37° C., 10 h",12.5 µg/mL
same,MIC S. marcescens,"Serratia marcescens; 96-well plate, 37° C., 10 h",25 µg/mL
